Reference: PubChem BioAssay AID1259411 (Chemical Carcinogenesis Research Information System (CCRIS), 2018)
Activity calls are given as the source filed them. No rule for the calls is given here.

System: rodent carcinogenicity bioassays, tumor incidence
Test: CCRIS carcinogenicity studies
In short: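 Archive of carcinogenicity, mutagenicity, tumor promotion and tumor inhibition results drawn from journals, NCI reports and other sources, expert-reviewed; covers 1985-2011 and is no longer updated.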

Measured: carcinogen call

CCN(CC)N=O
active: Species: DOG, Route: ORAL, Tumor Site: Type of Lesion: LIVER active; positive | Species: FISH, Route: ORAL, Tumor Site: Type of Lesion: LIVER active; positive | Species: FISH, Strain/Sex: GUPPY POECILIA RETICULATA/MALE, FEMALE, Route: IMMERSION, Dose: 0, 29.4 MG/L IN WATER FOR 28 D (STUDY DURATION: 6 MONTHS), Tumor Site: Type of Lesion: LIVER: MULTIFOCAL HEPATOMA, CHOLANGIOMA active; positive | Species: FISH, Strain/Sex: MEDAKA/MALE,FEMALE, Route: IMMERSION, Dose: 0, 390 PPM IN AQUEOUS BATH FOR 48 HR (STUDY DURATION: 7 MO), Tumor Site: Type of Lesion: LIVER: TUMOR active; positive | Species: FISH, Strain/Sex: SHASTA RAINBOW TROUT/FEMALE, Route: ORAL, Dose: 0, 4, 70, 275, 550, 1100 PPM IN DIET FOR 12 MO (STUDY DURATION: 18 MO), Dose: 0, 4, 70, 275, 550, 1100 PPM IN DIET FOR 12 MO (STUDY DURATION: 18 MO), Tumor Site: Type of Lesion: LIVER: TUMOR active; positive | Species: FISH, Strain/Sex: SHASTA RAINBOW TROUT/MALE, Route: ORAL, Dose: 0, 4, 70, 275, 550, 1100 PPM IN DIET FOR 12 MO (STUDY DURATION: 18 MO), Dose: 0, 4, 70, 275, 550, 1100 PPM IN DIET FOR 12 MO (STUDY DURATION: 18 MO), Tumor Site: Type of Lesion: LIVER: TUMOR active; positive | Species: GUINEA PIG, Route: ORAL, SUBCUTANEOUS, Tumor Site: Type of Lesion: LIVER active; positive | Species: HAMSTER, Route: DERMAL, Tumor Site: Type of Lesion: NASAL CAVITY active; positive | Species: HAMSTER, Route: INHALATION, Tumor Site: Type of Lesion: TRACHEA, LUNG active; positive | Species: HAMSTER, Route: INTRAPERITONEAL, Tumor Site: Type of Lesion: TRACHEA, NASAL CAVITY, BRONCHI, LIVER, Tumor Site: Type of Lesion: TRACHEA, NASAL CAVITY, BRONCHI, LIVER active; positive | Species: HAMSTER, Route: ORAL, Tumor Site: Type of Lesion: TRACHEA, LUNG, NASAL CAVITY, BRONCHI, LIVER, FORESTOMACH, ESOPHAGUS, Tumor Site: Type of Lesion: TRACHEA, LUNG, NASAL CAVITY, BRONCHI, LIVER, FORESTOMACH, ESOPHAGUS active; positive | Species: HAMSTER, Route: SUBCUTANEOUS, Tumor Site: Type of Lesion: NASAL CAVITY, BRONCHI, TRACHEA, LUNG, LIVER, FORESTOMACH, ESOPHAGUS, Tumor Site: Type of Lesion: NASAL CAVITY, BRONCHI, TRACHEA, LUNG, LIVER, FORESTOMACH, ESOPHAGUS active; positive | Species: HAMSTER, Strain/Sex: SYRIAN/FEMALE, Route: INTRATRACHEAL, Dose: 0, 1 MG IN 0.1 ML PHOSPHATE BUFFER 15/WK FOR 4 MO (STUDY DURATION: 237 D), Tumor Site: Type of Lesion: LUNG: ADENOMA OR CARCINOMA, TRACHEA: PAPILLOMA active; positive | Species: HAMSTER, Strain/Sex: SYRIAN/MALE, Route: INTRATRACHEAL, Dose: 0, 0.1, 0.5 MG IN PHOSPHATE BUFFER 1/WK FOR 15 WK (TOTAL DOSE; 1.5; 7.5 MG) (STUDY DURATION: LIFESPAN), Dose: 0, 0.1, 0.5 MG IN PHOSPHATE BUFFER 1/WK FOR 15 WK (TOTAL DOSE; 1.5; 7.5 MG) (STUDY DURATION: LIFESPAN), Tumor Site: Type of Lesion: TRACHEA: PAPILLOMA, LUNG: ADENOMA, SQUAMOUS CARCINOMA, ADENOCARCINOMA, LIVER: HEPATOCELLULAR CARCINOMA, Tumor Site: Type of Lesion: TRACHEA: PAPILLOMA, LUNG: ADENOMA, SQUAMOUS CARCINOMA, ADENOCARCINOMA, LIVER: HEPATOCELLULAR CARCINOMA active; positive | Species: MONKEY, Route: ORAL, INTRAPERITONEAL, Tumor Site: Type of Lesion: LIVER active; positive | Species: MOUSE, Route: DERMAL, Tumor Site: Type of Lesion: NASAL CAVITY active; positive | Species: MOUSE, Route: ORAL, Tumor Site: Type of Lesion: LIVER, ESOPHAGUS, LUNG, FORESTOMACH, Tumor Site: Type of Lesion: LIVER, ESOPHAGUS, LUNG, FORESTOMACH active; positive | Species: MOUSE, Route: SUBCUTANEOUS, INTRAPERITONEAL, Tumor Site: Type of Lesion: LUNG active; positive | Species: MOUSE, Strain/Sex: AKR/MALE, Route: ORAL, Dose: 0, 100 PPM IN DRINKING WATER FOR DURATION OF STUDY (STUDY DURATION: 150 D), Tumor Site: Type of Lesion: LUNG: TUMOR active; positive | Species: MOUSE, Strain/Sex: B6C3F1/FEMALE, Route: INTRAPERITONEAL, Dose: 0, 1.5, 3 UG IN 0.01 ML TRIOCTANOIN/G BW INITIAL DOSE GIVEN ON DAY 1 OF AGE AND 3 SUBSEQUENT DOSES GIVEN 3, 9 AND 15 DAY, Dose: 0, 1.5, 3 UG IN 0.01 ML TRIOCTANOIN/G BW INITIAL DOSE GIVEN ON DAY 1 OF AGE AND 3 SUBSEQUENT DOSES GIVEN 3, 9 AND 15 DAY, Tumor Site: Type of Lesion: LIVER: ADENOMA, CARCINOMA, LUNG: TUMORS active; positive | Species: MOUSE, Strain/Sex: B6C3F1/FEMALE, Route: INTRAPERITONEAL, Dose: 0, 1.5, 3 UG IN 0.01 ML TRIOCTANOIN/G BW INITIAL DOSE GIVEN ON DAY 15 OF AGE AND 3 SUBSEQUENT DOSES GIVEN 3, 9 AND 15 DA, Dose: 0, 1.5, 3 UG IN 0.01 ML TRIOCTANOIN/G BW INITIAL DOSE GIVEN ON DAY 15 OF AGE AND 3 SUBSEQUENT DOSES GIVEN 3, 9 AND 15 DA, Tumor Site: Type of Lesion: LIVER: ADENOMA, CARCINOMA, LUNG: TUMORS active; positive | Species: MOUSE, Strain/Sex: B6C3F1/FEMALE, Route: INTRAPERITONEAL, Dose: 0, 1.5, 3 UG IN 0.01 ML TRIOCTANOIN/G BW INITIAL DOSE GIVEN ON DAY 42 OF AGE AND 3 SUBSEQUENT DOSES GIVEN 3, 9 AND 15 DA, Dose: 0, 1.5, 3 UG IN 0.01 ML TRIOCTANOIN/G BW INITIAL DOSE GIVEN ON DAY 42 OF AGE AND 3 SUBSEQUENT DOSES GIVEN 3, 9 AND 15 DA, Tumor Site: Type of Lesion: LIVER: ADENOMA, CARCINOMA, LUNG: TUMORS active; positive | Species: MOUSE, Strain/Sex: B6C3F1/MALE, Route: INTRAPERITONEAL, Dose: 0, 0.02, 0.07 UMOL/G BW IN 10 µL/G BW TRIOCTANOIN ONCE AT 12 D OF AGE (STUDY DURATION: 9 MO), Dose: 0, 0.02, 0.07 UMOL/G BW IN 10 µL/G BW TRIOCTANOIN ONCE AT 12 D OF AGE (STUDY DURATION: 9 MO), Tumor Site: Type of Lesion: LIVER: HEPATOMA active; positive | Species: MOUSE, Strain/Sex: B6C3F1/MALE, Route: INTRAPERITONEAL, Dose: 0, 1.5, 3 UG IN 0.01 ML TRIOCTANOIN/G BW INITIAL DOSE GIVEN ON DAY 1 OF AGE AND 3 SUBSEQUENT DOSES GIVEN 3, 9 AND 15 DAY, Dose: 0, 1.5, 3 UG IN 0.01 ML TRIOCTANOIN/G BW INITIAL DOSE GIVEN ON DAY 1 OF AGE AND 3 SUBSEQUENT DOSES GIVEN 3, 9 AND 15 DAY, Tumor Site: Type of Lesion: LIVER: ADENOMA, CARCINOMA, LUNG: TUMORS active; positive | Species: MOUSE, Strain/Sex: B6C3F1/MALE, Route: INTRAPERITONEAL, Dose: 0, 1.5, 3 UG IN 0.01 ML TRIOCTANOIN/G BW INITIAL DOSE GIVEN ON DAY 15 OF AGE AND 3 SUBSEQUENT DOSES GIVEN 3, 9 AND 15 DA, Dose: 0, 1.5, 3 UG IN 0.01 ML TRIOCTANOIN/G BW INITIAL DOSE GIVEN ON DAY 15 OF AGE AND 3 SUBSEQUENT DOSES GIVEN 3, 9 AND 15 DA, Tumor Site: Type of Lesion: LIVER: ADENOMA, CARCINOMA, LUNG: TUMORS active; positive | Species: MOUSE, Strain/Sex: B6C3F1/MALE, Route: INTRAPERITONEAL, Dose: 0, 1.5, 3 UG IN 0.01 ML TRIOCTANOIN/G BW INITIAL DOSE GIVEN ON DAY 42 OF AGE AND 3 SUBSEQUENT DOSES GIVEN 3, 9 AND 15 DA, Dose: 0, 1.5, 3 UG IN 0.01 ML TRIOCTANOIN/G BW INITIAL DOSE GIVEN ON DAY 42 OF AGE AND 3 SUBSEQUENT DOSES GIVEN 3, 9 AND 15 DA, Tumor Site: Type of Lesion: LIVER: ADENOMA, CARCINOMA, LUNG: TUMORS active; positive
